Tests used:
[1] = system: NS-20Y (mouse neuroblastoma cells); assay: Activity on NS-20Y cells: appearance of neurites; assay type: cell-based
How it was run: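 Mouse neuroblastoma NS-20Y cells were grown in polyornithine-coated dishes in DMEM with 10 % FCS, 100 units/ml penicillin G sodium and 100 micrograms/ml streptomycin sulfate, at 37° C under 5 % carbon dioxide, and exposed to compound. Cells were fixed with 4 % glutaraldehyde, stained with 0.05 % methylene blue, and the fraction bearing neurites at least twice the cell's long diameter was counted microscopically.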

[2] = system: neuro-2a (mouse neuroblastoma cells); assay: Action on neuro-2a: proportion of cells containing outgrown neurites; assay type: cell-based; settings: mean ± S.D.
How it was run: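 Read-out is the percentage of neurite-bearing cells (neurite ≥2× long cell diameter), counted microscopically over more than 200 cells per well. Before fixation and staining, neuro-2a cells (1,000/well, DMEM + 10% FCS) were cultured for one day at 37 °C; up to six compound concentrations, three runs each.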

[3] = system: rats with crushed sciatic nerves; assay: Weight of muscle extensor digitorum longus in rats with crushed sciatic nerves; assay type: in vivo, rat (male Wistar); settings: thirty days after operation, mean ± S.D.
Description: (§1) The therapeutic effect of the compound of the invention was tested on rats having crushed sciatic nerves as a model of peripheral nervous disorder using (1) a change in the action of the hind paw with the crushed sciatic nerves and (2) a change in the weight of the muscle as an index of the course of degeneration and regeneration of peripheral nerves.
(§2) In the experiment, male Wistar rats (6 weeks old), seven per group, were used. The sciatic nerves were crushed by a method similar to the method of Yamatsu et al. (see Kiyomi Yamatsu, Takenori Kaneko, Akifumi Kitahara and Isao Ohkawa, Journal of Japanese Pharmacological Society, 72, 259-268 (1976) and the method of Hasegawa et al. (see Kazuo Hasegawa, Naoji Mikuni and Yutaka Sakai, Journal of Japanese Pharmacological Society, 74, 721-734 (1978). Specifically, under anesthesia with pentobarbital (40 mg/kg, i.p.), the left side sciatic nerve was exposed at the femur, and a specific site of the exposed sciatic nerve was crushed for 30 seconds by using a hemostat. After the crushing, the operation site was immediately sutured. Thereafter, vincristine known to retard the regeneration of the peripheral nerve was intraperitoneally administered in a dose of 100 g/kg once a week.
(§3) Compounds of the invention were selected as test drugs, and administered intraperitoneally once a day from the day of crushing to 30th day from then. To a control group, only 0.9 % saline was administered.
It is known that removal of a nerve or its disorder causes atorphy of the muscle which is under its control, and the atrophy is gradually cured by re-control by the nerve. For this reason, a change in the weight of the muscle, which is quantitative, was selected as an index. Thirty days after the operation, the muscles extensor digitorum longus of both hind paws which are muscles under the control of sciatic nerves were extracted under anesthesia, and their weights were measured. The ratio of the weight of the muscle extensor digitorum longus on the crushed side to that of normal side was calculated and expressed in percentage (%).

[4] = Acute toxicity on mice; assay type: in vivo; settings: mouse, in vivo, ip, 24 hours after administration; read-out: Estimated LD50
Description: The acute toxicity of the compounds of the invention was examined by the following method.
Male ddy-strain 5-week old mice, 4-6- per group, were used as experimental animals. Each of the compounds was intraperitoneally (i.p.), and the toxicity of the compound was assessed 24 hours after the administration.

[5] = system: rats with lesioned nigral dopaminergic nerve cells; assay: Motor imbalance (methamphetamine-induced rotation) after 6-hydroxydopamine lesion and transplantation of fetal cerebral cells; assay type: in vivo, rat (female Wistar)
Description: Nigral dopaminergic nerve cells at the left side of the brain of 4-week old female Wistar rats (body weight 100 g) were lesioned by injecting a very small quantity of 6-hydroxydopamine. […] Upon administration of methamphethamine (5 mg/kg, i.p.) to the rats having the lesioned nigral dopaminergic nerve cells, they began rotational movement toward the lesioned side.
After two weeks from the destruction by the administration of the drug, portions of the […] containing dopamine cells (i.e., substantial nigra and the tagmentum at the abdomen side) were cut from the brain of a fetal rat of 14 to 17 days of age, cut finely, and treated with trypsin. Then, the extracted tissues were incubated at 37° C. for 30 minutes, and the tissues were subjected to pipetting to form a suspension. Five microliters of the suspension was transplanted each into two sites of the caudate nucleus of the lesioned side (10 microliters in total, about 10^5 cells)
Compound No. 168 of the invention was administered in a dose of 156 mg/kg (i.p.) for 4 days from the day of transplantation, then with a suspension of 7 days, for 10 days in a dose of 50 mg/kg (i.p.) from the 11th day. Compound No. 296 was administered in a dose of 153 mg/kg, and then 50 mg/kg, in accordance with the same schedule.
Compound No. 3144 was also administered in accordance with the same schedule in a dose of 135 mg/kg, and then 45 mg/kg.
The rotational movements induced by administration of methamphetamine were examined 2 weeks and 1 week before, and 2 (or 3), 4, 6 and 8 weeks after, the transplantation and the administration of the drug. The number of rotational movements for the first one minute was counted at intervals of 10 minutes after the administration of methamphetamine, and the total number of rotational movements counted six times was averaged to find a mean number of the rotational movements.

[6] = system: rats with crushed sciatic nerves; assay: Twitch tension of hind paw in rats with crushed sciatic nerves; assay type: in vivo, rat (male Wistar)
Description: as §1, §2, §3
Twitch tension, which is a transient tension incident to contraction of the dominated muscles that occurs by electrical stimulation or the like of motor nerves, as is the case with the interdigit distance to be described, is considered to reflect functional changes of the nerves and muscles.
[…] J. Neurosci. Methods, 19, 259 (1987)]. Specifically, the hair on the hind paw of rats was shaven, and coated with Cardiocream (a product of Nihon Denko K.K.). Then, to the skin of the hind paw, electrodes with an alligator were attached The cathode was attached to the rear portion of the trochiter, and the […], to a site 1 cm rearwardly of the […] electrode and 1 cm toward its back. The rat was fixed on its back, and the hind paw to be measured was fixed perpendicularly. A silk yarn, about 20 cm long, was connected at one end to the third efferent toe joint of the hind paw to be measured and at the other end to a tension transducer. Isotonic contractions of the third muscle digitus flexus were recorded on a polygraph. Electrical stimulation was effected at a voltage of 100V for a continuous duration of 1 msec. with rectangular waves at a frequency of 2 Hz. The static tension was 15 to 30 g, and 10 stimulations were repeated 3 times with intervals of 15 seconds. The contracting force was expressed as tension (g). From the measured values of both paws, the recovery ratio (%, left/right) of the contracting force of the paw with crushed nerves was calculated.

[7] = system: rats having crushed sciatic nerves; assay: Interdigit distance in rats with crushed sciatic nerves; assay type: in vivo, rat (male Wistar); settings: 30 mg/kg, i.p.
Description: as §1
as §2, with “Thereafter, vincristine known to retard the regeneration of the peripheral nerve was intraperitoneally administered in a dose of 100 g/kg once a week.” left out
By a method similar to the method of Hasegawa [Hasegawa, K., Experientia, 34, 750-751 (1978)], the distance between the first and fifth digits of the hind paw was measured.
The ratio of the measured distance to the interdigit distance in a normal hind paw was calculated and expressed in percentage (%). […]

[8] = 3 W after transplantation, i.p. 168: 156 then 50, 296: 153 then 50, 3144: 135 then 45 mg/kg
[9] = 4 W after transplantation, i.p. 168: 156 then 50, 296: 153 then 50, 3144: 135 then 45 mg/kg
[10] = 6 W after transplantation, i.p. 168: 156 then 50, 296: 153 then 50, 3144: 135 then 45 mg/kg
[11] = 8 W after transplantation, i.p. 168: 156 then 50, 296: 153 then 50, 3144: 135 then 45 mg/kg
[12] = -1 W (before transplantation and drug)
[13] = Table 14, 30 mg/kg i.p. once a day, 30 days, mean ± S.D., 168: *3 p < 0.01, 296: *2 p < 0.05

| SMILES | Number of cells in which neurites appeared/total number of cells ([1]; 24 hours, 0.1 mM) | Number of cells in which neurites appeared/total number of cells ([1]; 48 hours, 0.1 mM) | Number of cells having neurites with a length at least two times the diameter of each cell/total number of cells ([2]; 0.1 mM) | Number of cells having neurites with a length at least two times the diameter of each cell/total number of cells ([2]; 0.3 mM) | Weight of muscle extensor digitorum longus left/right ([3]; 30 mg/kg, *2 p < 0.05) | LD50 at 24 h [4] | mean number of the rotational movements [5, 8] | mean number of the rotational movements [5, 9] | mean number of the rotational movements [5, 10] | mean number of the rotational movements [5, 11] | mean number of the rotational movements [5, 12] | Twitch tension left/right [6, 13] | also measured |
| --- | --- | --- | --- | --- | --- | --- | --- | --- | --- | --- | --- | --- | --- |
| CN(C(=O)c1ccccc1)c1ccnc(N2CCC(c3ccccc3)CC2)n1 [Compound 168, 4-(N-methylbenzamino)-2-(4-phenylpiperidino)pyrimidine p-toluenesulfonate] | 26/50 | 20/55 | 35.7 ± 0.8% | 14.6 ± 4.3% | 59.4 ± 11.8% | > 1000 mg/kg | 9.1 ± 5.6 | 4.5 ± 4.5 | 1.5 ± 3.9 | 0.8 ± 2.1 | 13.3 ± 7.8 | 51.2 ± 13.6% | Number of cells in which neurites appeared/total number of cells ([1]; 24 hours, 0.25 mM): 12/50; Number of cells having neurites with a length at least two times the diameter of each cell/total number of cells ([2]; 0.05 mM): 23.8 ± 2%; Number of cells having neurites with a length at least two times the diameter of each cell/total number of cells ([2]; 0.2 mM): 24.4 ± 6.9%; Weight of muscle extensor digitorum longus left/right ([3]; 10 mg/kg): 52.1 ± 5.4%; Twitch tension left/right ([6]; Table 14, 10 mg/kg i.p. once a day, 30 days, mean ± S.D., *2 p < 0.05): 48.4 ± 11.8% |
| CN(C(=O)c1ccco1)c1ccnc(N2CCC(c3ccccc3)CC2)n1 [Compound 296] | 9/49 | 2/50 | 44.4 ± 5.5% | 22.4 ± 3.0% | 56.9 ± 9.7% | > 1000 mg/kg | 8.4 ± 5.0 | 3.1 ± 3.4 | 0.9 ± 2.3 | 1.0 ± 1.5 | 13.2 ± 4.1 | 48.1 ± 9.4% |  |
| CN1C(=O)Cc2cnc(N3CCN(C(c4ccccc4)c4ccc(Cl)cc4)CC3)nc21 (stereo not shown) [Compound 3144] |  |  | 34.1 ± 3.8% | 44.5 ± 9.7% |  | 500 to 1000 mg/kg | 7.7 ± 4.7 | 4.0 ± 5.6 | 0.2 ± 2.2 | 1.1 ± 4.1 | 14.1 ± 4.7 |  | Number of cells having neurites with a length at least two times the diameter of each cell/total number of cells ([2]; 0.03 mM): 20.8 ± 4.7%; Number of cells having neurites with a length at least two times the diameter of each cell/total number of cells ([2]; 1 mM): 32.2 ± 1.6%; Recovery of the interdigit distance ([7]; 18th days): 72.7 ± 14.0%; Recovery of the interdigit distance ([7]; 23rd days): 83.8 ± 12.2%; Twitch tension left/right ([6]; Table 15, 30 mg/kg, 18th days): 54.5 ± 17.1%; Twitch tension left/right ([6]; Table 15, 30 mg/kg, 23rd days): 57.9 ± 15.5% |

Source: patent publication US5147876A, “2,6-di,2,4,6-, 2,5,6-tri and 2,4,5,6-tetra-substituted pyrimidines, their pharmaceutically acceptable salts, pharmaceutical compositions containing same and their use in the treatment of neurological diseases” (Mitsui Petrochemical Industries, Ltd., priority 1988, dated 1992)
